Data taken from US8633204B2 (Pfizer Inc., priority 2006, dated 2014).
pEC50, pIC50: −log10 of the molar value.

Key:
[1] = tested on: phosphorylation of AKT on S473 in U87MG tumors; assay: In vivo target modulation study, U87MG tumors; set-up: species or system mouse; conditions: for p-Akt/Akt(%): 1 h post last dose
Experimental: In vivo target modulation studies to determine the effect of Compound 152 treatment on the phosphorylation of AKT on S473 by ELISA and S6 on S235/S236 by IHC were performed. Resected tumors were frozen on dry ice and pulverized using the FAST PREP instrument (Qbiogene). Briefly, frozen tumors were placed in Fast Prep matrix tubes, cold lysis buffer [20 mM HEPES (pH 7.5), 150 mM NaCl, 1.0 mM sodium EDTA, 1% Triton X-100, 2.5 mM sodium pyrophosphate, 1 mM sodium orthovanadate, 1 μg/ml leupeptin, and 1 mM PMSF] was added and samples were centrifuged for 5 sec, mixed and process repeated two more times. Samples were centrifuged in a cold refrigerated Eppendorf centrifuge at 14,000 RPM for 20 min. Supernatant was collected and total and phosphoAKT (S473) protein levels determined by ELISA. The extent of phosphorylation in tumors resected from treated animals was compared with that in tumors resected from vehicle-treated animals at the same time point. Plasma samples, obtained by centrifuging individual blood samples at 3000×g for 5 min at 4° C. in an Eppendorf 5417R centrifuge, were stored at −80° C. until they could be analyzed for drug concentration. Briefly, plasma samples (50 μl) or Compound 152 standards in mouse plasma were mixed with acetonitrile […]) and injected onto a LC/MS/MS system where separation occurred on a C-18 SB phenyl (5 μM, 2.1×50 mm, Agilent) reverse-phase high-performance liquid chromatography column. The amount of inhibitor and the internal standard (0.5 μM buspirone) in each mouse plasma sample was quantified based on standard curves generated using known amounts of compound. […] Time course and dose response of in vivo target modulation and plasma inhibitor concentrations were determined post last dose at the end of the efficacy study described above and data are summarized in Table 4.

[2] = tested on: PI3-K in BT20 cells (phosphorylation of AKT at serine 473); assay: PI3-Kα Cellular Assay (AKT Ser473 phosphorylation ELISA in BT20 cells); assay type: cell-based, human; conditions: Homo sapiens, BT-20, pAKT Ser473 ELISA, 1 hour incubation
Procedure, shortened: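 Cells seeded overnight in 0.5% FBS, then exposed 1 h at 37 °C to an 11-concentration 1:3 dilution series, in duplicate.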

Compound: COc1ccc(-c2cc3c(C)nc(N)nc3n([C@H]3CC[C@H](O)CC3)c2=O)cn1 [Compound 152, 2-amino-8-(trans-4-hydroxycyclohexyl)-6-(6-methoxypyridin-3-yl)-4-methylpyrido[2,3-d]pyrimidin-7(8H)-one]
- pEC50 ([1]; Mus musculus, U-87 MG, read-out: EC50 plasma concentration for pAKT S473 target modulation): 7.62
- p-Akt/Akt(%) ([1]; U87, 0.1 mg/kg): 44%
- p-Akt/Akt(%) ([1]; U87, 0.3 mg/kg): 27%
- p-Akt/Akt(%) ([1]; U87, 1 mg/kg): 11%
- inhibition of pAKT at S473 ([1]; U87MG tumors in vivo): dose dependent inhibition
- pIC50 [2]: 8.44
